From ChEMBL document CHEMBL4665671 (ACS Med Chem Lett, 2019)

Columns and labels:
mTORC2 = mTORC2 (Homo sapiens, UniProt P42345); experiment: Inhibition of mTORC2 in human A2058 cells assessed as reduction in PKB phosphorylation at S473 residue incubated for 1 hr by Western blot analysis; format: cell-based
[1] = molecular target: Serine/threonine-protein kinase mTOR (Homo sapiens, UniProt P42345); experiment: Displacement of alexa fluor 647-labeled kinase tracer 314 from recombinant human N-terminal GST-fused mTOR (1360 to 2549 residues) expressed in baculovirus expression system by TR-FRET assay
[2] = molecular target: Phosphatidylinositol 4,5-bisphosphate 3-kinase catalytic subunit alpha isoform (Homo sapiens, UniProt P42336); experiment: Displacement of alexa fluor 647-labeled kinase tracer 314 from recombinant N-terminal His6-tagged p110alpha (unknown origin) by TR-FRET assay
mTORC1 = mTORC1 (Homo sapiens, UniProt P42345); experiment: Inhibition of mTORC1 in human A2058 cells assessed as reduction in ribosomal protein S6 phosphorylation at Ser235/236 residues incubated for 1 hr by Western blot analysis; format: cell-based

Phosphatidylinositol 4,5-bisphosphate 3-kinase catalytic subunit alpha isoform, sequence (P42336 whole entry, canonical isoform): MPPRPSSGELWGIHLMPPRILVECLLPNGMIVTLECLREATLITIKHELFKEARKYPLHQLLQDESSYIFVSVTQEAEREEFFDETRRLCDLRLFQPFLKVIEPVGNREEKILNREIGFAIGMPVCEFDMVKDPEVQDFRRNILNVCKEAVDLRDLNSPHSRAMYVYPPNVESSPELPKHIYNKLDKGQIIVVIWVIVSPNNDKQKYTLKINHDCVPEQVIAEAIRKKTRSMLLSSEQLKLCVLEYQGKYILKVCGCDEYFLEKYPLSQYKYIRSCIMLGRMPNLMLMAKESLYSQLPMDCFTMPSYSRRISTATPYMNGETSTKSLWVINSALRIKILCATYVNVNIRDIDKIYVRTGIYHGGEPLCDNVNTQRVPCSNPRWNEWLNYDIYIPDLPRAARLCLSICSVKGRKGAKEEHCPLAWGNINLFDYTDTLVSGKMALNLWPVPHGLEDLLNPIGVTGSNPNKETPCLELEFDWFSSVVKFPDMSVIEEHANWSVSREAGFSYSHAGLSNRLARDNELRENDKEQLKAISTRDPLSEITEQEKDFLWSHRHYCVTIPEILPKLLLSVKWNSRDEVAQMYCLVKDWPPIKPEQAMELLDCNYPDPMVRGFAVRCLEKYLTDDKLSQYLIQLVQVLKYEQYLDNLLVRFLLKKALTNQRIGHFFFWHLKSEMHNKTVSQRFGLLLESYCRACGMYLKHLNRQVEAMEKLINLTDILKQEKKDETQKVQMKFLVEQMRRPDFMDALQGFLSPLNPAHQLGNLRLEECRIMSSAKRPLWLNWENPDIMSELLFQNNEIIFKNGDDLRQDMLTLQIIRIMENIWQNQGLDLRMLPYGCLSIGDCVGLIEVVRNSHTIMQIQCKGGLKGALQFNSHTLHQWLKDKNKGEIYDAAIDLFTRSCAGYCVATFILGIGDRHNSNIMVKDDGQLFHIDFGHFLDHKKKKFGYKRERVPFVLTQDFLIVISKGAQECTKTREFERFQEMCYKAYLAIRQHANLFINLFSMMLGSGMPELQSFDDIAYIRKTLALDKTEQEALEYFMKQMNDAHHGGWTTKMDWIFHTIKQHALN

For `C[C@@H]1COCCN1c1nc(-c2cnc(N)nc2C(F)F)nc(N2CCOCC2)n1`, which IC50 (mTORC2) is on record?
The IC50 was 64 nM.

And the Ki [1]?
The Ki was 21 nM.

What about the Ki [2] of the same molecule?
The Ki was 2.7 nM.

And the IC50 (mTORC1)?
The IC50 was 116 nM.

Which IC50 (mTORC2) does the source give for `Nc1ncc(-c2nc(N3CCOCC3)nc(N3[C@@H]4CC[C@H]3COC4)n2)c(C(F)F)n1` here?
The IC50 was 73 nM.

What about the Ki [1] of the same molecule?
Its Ki is 14 nM.

And the Ki [2]?
Its Ki is 3.4 nM.

And the IC50 (mTORC1)?
Its IC50 is 91 nM.
